This experiment has as its target Apelin receptor (Homo sapiens) (UniProt P35414). The experiment can be described thus: APJ antagonist potency in beta-arrestin recruitment, dose response, cell-based, luminescence, uHTS hits (AID 2784). As to conditions: antagonist mode. (Arrestin recruitment assays detect the binding of arrestin to an activated receptor.)

Structures are written as SMILES. Activity calls are given as the source filed them. No rule for the calls is given here. Some results are limits rather than exact numbers.

Sequence of Apelin receptor (Homo sapiens) (P35414 whole entry, looked up): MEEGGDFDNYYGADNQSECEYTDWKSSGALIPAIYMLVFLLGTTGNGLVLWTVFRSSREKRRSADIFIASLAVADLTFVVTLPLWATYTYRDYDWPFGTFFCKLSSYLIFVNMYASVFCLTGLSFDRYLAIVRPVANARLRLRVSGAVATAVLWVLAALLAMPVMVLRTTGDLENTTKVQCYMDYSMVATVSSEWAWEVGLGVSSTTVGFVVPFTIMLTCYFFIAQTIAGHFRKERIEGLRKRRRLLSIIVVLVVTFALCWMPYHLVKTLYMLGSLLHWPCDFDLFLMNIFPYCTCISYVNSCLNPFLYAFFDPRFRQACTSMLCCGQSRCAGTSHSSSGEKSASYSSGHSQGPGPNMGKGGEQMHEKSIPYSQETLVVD

The IC50 is the midpoint of a concentration-inhibition curve. Turning to `O=C(O)c1ccccc1N=Nc1c(O)[nH]c2ccc([N+](=O)[O-])cc12`, the IC50 is > 40 µM (inactive).

In the case of `CC1=Nc2ccccc2/C1=C/c1sc(=N)n(-c2nccs2)c1O`, the IC50 is > 40 µM (inactive).

With `Cn1c(O)c(N=Nc2nc(-c3ccccc3)cs2)c2ccccc21`, the IC50 is > 40 µM (inactive).

As to `Cc1ccc(NS(=O)(=O)c2cc([N+](=O)[O-])ccc2N/N=C/c2sc(N3CCOCC3)nc2-c2ccccc2)c(C)c1`, the IC50 was > 40 µM (inactive).

For `CCOC(=O)C1=NNC(C(=O)c2ccc(Cl)cc2)C1c1ccccc1` (configuration not stated), the IC50 is 10.6 µM.

For `COc1ccc(NS(=O)(=O)c2cc([N+](=O)[O-])ccc2N/N=C\c2c(C)[nH]c3ccccc23)cc1`, the IC50 was > 40 µM (inactive).

`CC1=NN(C(N)=S)C(=O)C1N=Nc1ccc([N+](=O)[O-])cc1` (configuration not stated): the IC50 was > 40 µM (inactive).

Take `CC1=NN(c2ccc(C)cc2)C(=O)/C1=C/c1ccc(-c2cc([N+](=O)[O-])ccc2O)o1`: the IC50 is > 40 µM (inactive).

Take `COc1ccc2c(c1)C(=O)[C@H](O)[C@@H](c1ccc(OC)c(Br)c1)O2`: the IC50 was 3.07 µM.

Turning to `O=C(CCCC(=O)Nc1cccc(Br)c1)N/N=C/c1cc([N+](=O)[O-])ccc1O`, the IC50 entry was “inactive”.

Turning to `COc1ccc2c(c1)C(=O)[C@@H](O)[C@H](c1ccc(OC)c(Br)c1)O2`, the IC50 was > 40 µM (inactive).

As for `Cc1ncc(CO)c(/C=N/Nc2ccc(C(F)(F)F)cn2)c1O`, the IC50 was 9.42 µM.

As to `CCOC(=O)C1=C(C)NC2=C(C(=O)CC(c3cccs3)C2)C1c1cccs1` (configuration not stated), the IC50 result is “inactive”.

As for `COC(=O)C1NN=C(C(=O)c2ccc(Cl)cc2)C1c1ccc(OC)cc1` (configuration not stated), the IC50 was 7.27 µM.

On to `CN(/N=C/c1cc([N+](=O)[O-])ccc1O)c1ccccc1`, for which the IC50 result is “inactive”.

Regarding `CCOCCOC(=O)C1=C(C)NC2=C(C(=O)CC(c3cccs3)C2)C1c1ccsc1` (configuration not stated), the IC50 was > 40 µM (inactive).

For the compound `O=[N+]([O-])c1ccc(O)c(/C=N/Nc2ccc(Cl)nn2)c1`, the IC50 was 4.18 µM.

These data come from PubChem BioAssay AID2784 (Sanford-Burnham Center for Chemical Genomics, 2010).
